No end group written: not given here.
Experiments:
Test in all cases: biochemical
DRB1*1201 = DRB1*1201 (Homo sapiens, UniProt P01903+P01911, A100R/A169T/D57E/D86V/F55L/H45Y/K41T/L162R/M171V/P40S/Q125H/Q178H/Q39Y/Q99D/R42G/S66L/T262R/V114A/V67L/W38E/Y59H/Y61H/Y89S); format: binding
DRB1*0301 = DRB1*0301 (Homo sapiens, UniProt P01903+P01911, A100K/A102G/A103R/A169T/F55Y/I96L/K41T/L162R/M171V/P40S/Q125H/Q178H/Q39Y/R42S/S66N/T106N/T262R/W38E/Y61H); format: binding
DRB5*0101 = DRB5*0101 (Homo sapiens, UniProt P01903+Q30154); conditions: Binding affinity DRB5 *0101
DRB1*1101 = DRB1*1101 (Homo sapiens, UniProt P01903+P01911, A100R/A169T/A87E/I96F/K41T/L162R/M171V/P40S/Q125H/Q178H/Q39Y/Q99D/R42S/S66Y/T262R/V115G/W38E); conditions: Binding affinity DRB1 *1101
DRB1*0802 = DRB1*0802 (Homo sapiens, UniProt P01903+P01911, A100R/A103L/A169T/F76Y/H45Y/I96F/K41T/L162R/M171V/P40S/Q125H/Q178H/Q39Y/Q99D/R218S/R42G/S66Y/V115G/W38E); format: binding
DR4w4 (DRB1*0401) = DR4w4 (DRB1*0401) (Homo sapiens, UniProt P01903+P01911, A100K/A169T/F76Y/I96L/K127E/L162R/M171V/N62H/P40V/Q125Y/R42H/S133A/S149N/S66Y/V115G/V209L/W38E); format: binding
DRB1*0405 = DRB1*0405 (Homo sapiens, UniProt P01903+P01911, A100R/A169T/D86S/F76Y/I96L/K127E/L162R/M171V/N62H/P40V/Q125Y/R42H/S133A/S149N/S66Y/V115G/V209L/W38E); format: binding
DR1 (DRB1*0101) = DR1 (DRB1*0101) (Homo sapiens, UniProt P01903+P01911, A100R/D57E/F55L/F60I/F76Y/I96L/L162R/M171V/P40L/Q125E/R42F/V115G/Y59C); format: binding
DRB4*0101 = DRB4*0101 (Homo sapiens, UniProt P01903+P13762, G164S); format: binding
DRB1*1302 = DRB1*1302 (Homo sapiens, UniProt P01903+P01911, A100E/A169T/K41T/L162R/M171V/P40S/Q125H/Q178H/Q39Y/Q99D/R42S/S66N/T262R/V115G/W38E/Y61H); format: binding
DRB1*1501 = DRB1*1501 (Homo sapiens, UniProt P01903+P01911); format: binding
DR7 (DRB1*0701) = DR7 (DRB1*0701) (Homo sapiens, UniProt P01903+P01911, A100R/A102G/A103Q/D57E/D86V/E43K/F76Y/K127E/L162R/M171V/P40G/Q125H/Q99D/R33Q/R42Y/R54Q/S133A/S66F/T210M/V115G/Y107V/Y59L/Y89S); format: binding
DRB1*0901 = DRB1*0901 (Homo sapiens, UniProt P01903+P01911, A100R/A103E/D57H/D86V/F55Y/F60I/F76Y/I96F/K127E/L162R/M171V/P40D/Q125H/Q99R/R33Q/R42F/S133A/S66N/T210M/V115G/W38K/Y107V/Y59G/Y89S); format: binding

Chain of DRB1*1302 (P01903 26-254 limits assumed, other chains not shown): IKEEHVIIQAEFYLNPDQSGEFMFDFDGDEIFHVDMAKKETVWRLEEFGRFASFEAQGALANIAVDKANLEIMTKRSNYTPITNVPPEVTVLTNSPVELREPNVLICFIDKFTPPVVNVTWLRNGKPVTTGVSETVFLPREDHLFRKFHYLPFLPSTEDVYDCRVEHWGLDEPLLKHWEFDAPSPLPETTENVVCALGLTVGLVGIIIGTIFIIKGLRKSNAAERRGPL
Chain of DRB1*1101 (P01903 26-254 limits assumed, other chains not shown): as above
Chain of DRB1*0301 (P01903 26-254 limits assumed, other chains not shown): as above

Molecule	IC50 (DRB1*1201)	IC50 (DRB1*0301)	IC50 (DRB5*0101)	IC50 (DRB1*1101)	IC50 (DRB1*0802)	IC50 (DR4w4 (DRB1*0401))	IC50 (DRB1*0405)	IC50 (DR1 (DRB1*0101))	IC50 (DRB4*0101)	IC50 (DRB1*1302)	IC50 (DRB1*1501)	IC50 (DR7 (DRB1*0701))	IC50 (DRB1*0901)
CC[C@H](C)[C@H](NC(=O)[C@H](Cc1c[nH]c2ccccc12)NC(=O)[C@@H](NC(=O)[C@@H](NC(=O)[C@H](CO)NC(=O)[C@H](CC(C)C)NC(=O)[C@@H](N)[C@@H](C)O)C(C)C)[C@@H](C)O)C(=O)NCC(=O)N[C@@H](C)C(=O)N[C@@H](C)C(=O)N1CCC[C@H]1C(=O)N[C@@H](CC(C)C)C(=O)N[C@H](C(=O)N[C@@H](CC(C)C)C(=O)N[C@@H](CO)C(=O)O)[C@@H](C)CC [Peptide 68.0058]	0.055 µM	> 20 µM	–	–	–	–	–	–	–	–	–	–	–
CC[C@H](C)[C@H](NC(=O)[C@H](Cc1ccccc1)NC(=O)[C@H](Cc1c[nH]c2ccccc12)NC(=O)CNC(=O)[C@H](Cc1ccccc1)NC(=O)[C@H](CC(C)C)NC(=O)[C@H](Cc1ccccc1)NC(=O)CNC(=O)[C@@H](N)CC(C)C)C(=O)N[C@@H](CCCCN)C(=O)N[C@@H](CO)C(=O)N[C@@H](CO)C(=O)N[C@@H](CC(N)=O)C(=O)N[C@@H](CCC(=O)O)C(=O)N[C@@H](C)C(=O)O [Peptide 68.0084]	0.475 µM	> 20 µM	–	–	–	–	–	–	–	–	–	–	–
AYGISFMELVRPFKS [Peptide 89.0060]	–	7.09 µM	3.03 µM	0.051 µM	0.158 µM	1.72 µM	4.26 µM	0.64 µM	0.031 µM	4.49 µM	–	–	–
CSCC[C@H](NC(=O)CNC(=O)CNC(=O)[C@H](CCCNC(=N)N)NC(=O)[C@@H](NC(=O)[C@H](CCC(N)=O)NC(=O)[C@H](C)NC(=O)[C@@H](NC(=O)[C@@H](NC(=O)[C@H](CC(C)C)NC(=O)[C@H](Cc1c[nH]cn1)NC(=O)[C@H](Cc1ccc(O)cc1)NC(=O)[C@H](CCCCN)NC(=O)[C@H](Cc1ccccc1)NC(=O)[C@@H](N)CCSC)[C@@H](C)O)C(C)C)C(C)C)C(=O)O [Peptide 68.0119]	0.482 µM	> 20 µM	–	–	–	–	–	–	–	–	–	–	–
CC[C@H](C)[C@H](NC(=O)[C@@H](N)CCC(N)=O)C(=O)N[C@@H](Cc1ccc(O)cc1)C(=O)N[C@H](C(=O)N[C@@H](C)C(=O)N[C@@H](C)C(=O)N[C@@H](Cc1ccccc1)C(=O)N[C@H](C(=O)N[C@H](C(=O)N[C@@H](CCC(N)=O)C(=O)N[C@@H](C)C(=O)N[C@@H](C)C(=O)N[C@@H](C)C(=O)N[C@@H](CCC(=O)O)C(=O)N[C@H](C(=O)O)[C@@H](C)O)C(C)C)[C@@H](C)O)C(C)C [Peptide 68.0135]	0.934 µM	> 20 µM	–	–	–	–	–	–	–	–	–	–	–
CC(C)C[C@H](NC(=O)[C@@H](NC(=O)[C@H](CCC(=O)O)NC(=O)[C@H](C)NC(=O)[C@H](C)NC(=O)[C@H](C)NC(=O)[C@H](CCC(N)=O)NC(=O)[C@@H](NC(=O)[C@@H](NC(=O)[C@H](Cc1ccccc1)NC(=O)[C@H](C)NC(=O)[C@H](C)NC(=O)[C@@H](N)C(C)C)[C@@H](C)O)C(C)C)[C@@H](C)O)C(=O)N[C@@H](CO)C(=O)N[C@@H](CCC(=O)O)C(=O)O [Peptide 68.0136]	4.46 µM	> 20 µM	–	–	–	–	–	–	–	–	–	–	–
CC[C@H](C)[C@H](NC(=O)[C@H](CCC(N)=O)NC(=O)[C@@H](N)CCCNC(=N)N)C(=O)N[C@@H](Cc1ccc(O)cc1)C(=O)N[C@H](C(=O)N[C@@H](C)C(=O)N[C@@H](C)C(=O)N[C@@H](Cc1ccccc1)C(=O)N[C@H](C(=O)N[C@H](C(=O)N[C@@H](CCC(N)=O)C(=O)N[C@@H](C)C(=O)N[C@@H](C)C(=O)N[C@@H](C)C(=O)N[C@@H](CCC(=O)O)C(=O)O)C(C)C)[C@@H](C)O)C(C)C [Peptide 68.0134]	0.609 µM	> 20 µM	–	–	–	–	–	–	–	–	–	–	–
VMFLRYQGVEFMSFL [Peptide 89.0014]	–	18.7 µM	0.701 µM	–	13.4 µM	0.927 µM	0.629 µM	0.605 µM	0.013 µM	–	0.03 µM	2.54 µM	4.02 µM
KIGMIDDVTPISWTY [Peptide 90.0087]	–	0.07 µM	> 20 µM	> 20 µM	8.37 µM	0.02 µM	> 20 µM	3.22 µM	3.12 µM	0.0098 µM	4.46 µM	> 20 µM	> 20 µM
KHIRLLECVLMYKARE [Peptide 1601.44]	–	0.072 µM	1.63 µM	0.613 µM	1.77 µM	0.067 µM	0.236 µM	0.12 µM	0.039 µM	0.418 µM	0.074 µM	6.7 µM	7.48 µM
CC[C@H](C)[C@H](NC(=O)CNC(=O)[C@H](CCC(=O)O)NC(=O)[C@H](Cc1c[nH]cn1)NC(=O)[C@@H](NC(=O)[C@H](Cc1ccc(O)cc1)NC(=O)[C@H](Cc1ccc(O)cc1)NC(=O)[C@H](CC(C)C)NC(=O)CN)C(C)C)C(=O)N[C@@H](CCCNC(=N)N)C(=O)N[C@H](C(=O)N[C@@H](Cc1ccc(O)cc1)C(=O)N[C@@H](Cc1ccccc1)C(=O)N[C@H](C(=O)N[C@@H](CCC(N)=O)C(=O)O)C(C)C)[C@@H](C)O [Peptide 90.0171]	–	0.689 µM	> 20 µM	5.36 µM	7.38 µM	0.668 µM	4.66 µM	0.026 µM	0.0019 µM	0.532 µM	1.62 µM	5.58 µM	1 µM
AKLMSNLLSIPETCM [Peptide 89.0066]	–	12.8 µM	> 20 µM	14.6 µM	> 20 µM	0.099 µM	0.034 µM	0.323 µM	0.421 µM	0.012 µM	3.43 µM	0.388 µM	9.14 µM
VMAIFGVNPTVAEGF [Peptide 89.0080]	–	0.699 µM	19.4 µM	5.6 µM	> 20 µM	0.077 µM	0.017 µM	0.19 µM	0.08 µM	0.033 µM	–	0.336 µM	12.9 µM
QHSFNDDIFDLSEMI [Peptide 90.0152]	–	0.534 µM	–	4.38 µM	7.61 µM	0.037 µM	0.384 µM	0.042 µM	0.0021 µM	0.017 µM	0.688 µM	–	–
ETCMLIQPPKLRSSV [Peptide 89.0029]	–	> 20 µM	–	–	5.08 µM	0.901 µM	1.56 µM	0.06 µM	0.081 µM	3.05 µM	1.7 µM	0.354 µM	19.5 µM
EVQIALESLSTTIYN [Peptide 90.0231]	–	0.708 µM	> 20 µM	> 20 µM	> 20 µM	1.28 µM	4.27 µM	–	0.039 µM	0.0043 µM	–	0.032 µM	0.406 µM
IIHLKGDKNSLKCLR [Peptide 90.0218]	–	0.042 µM	9.92 µM	–	–	0.347 µM	12.7 µM	–	1.44 µM	1.33 µM	0.137 µM	–	–
LYGVSFMELIRPFQS [Peptide 89.0041]	–	> 20 µM	6.04 µM	0.039 µM	–	5.21 µM	1.8 µM	–	0.0022 µM	> 20 µM	1.55 µM	–	0.064 µM

Reference: patent US9340577B2, “HLA binding motifs and peptides and their uses” (priority 1992, dated 2016)
